According to ChEMBL document CHEMBL5291721, “A preclinical secondary pharmacology resource illuminates target-adverse drug reaction associations of marketed drugs” (Nat Commun, 2023):

Columns and labels:
[1] = target: T1, 5-hydroxytryptamine receptor 3A (Homo sapiens, UniProt P46098); type: functional
T1 sequence (P46098 whole entry): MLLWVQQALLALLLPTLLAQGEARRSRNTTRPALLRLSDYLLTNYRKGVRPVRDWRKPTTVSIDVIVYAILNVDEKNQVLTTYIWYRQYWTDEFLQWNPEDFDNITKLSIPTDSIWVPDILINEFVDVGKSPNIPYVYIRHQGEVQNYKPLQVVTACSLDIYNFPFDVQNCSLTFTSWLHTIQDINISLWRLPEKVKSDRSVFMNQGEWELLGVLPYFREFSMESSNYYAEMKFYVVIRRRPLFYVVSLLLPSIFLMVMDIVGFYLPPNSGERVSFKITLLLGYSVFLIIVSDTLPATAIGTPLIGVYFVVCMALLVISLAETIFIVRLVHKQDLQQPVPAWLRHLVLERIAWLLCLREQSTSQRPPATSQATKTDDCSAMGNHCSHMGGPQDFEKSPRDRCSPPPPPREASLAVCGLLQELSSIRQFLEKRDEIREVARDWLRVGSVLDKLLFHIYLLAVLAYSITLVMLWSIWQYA

[2] = target: T2, Amine oxidase [flavin-containing] A (Homo sapiens, UniProt P21397); type: functional
T2 sequence (P21397 whole entry): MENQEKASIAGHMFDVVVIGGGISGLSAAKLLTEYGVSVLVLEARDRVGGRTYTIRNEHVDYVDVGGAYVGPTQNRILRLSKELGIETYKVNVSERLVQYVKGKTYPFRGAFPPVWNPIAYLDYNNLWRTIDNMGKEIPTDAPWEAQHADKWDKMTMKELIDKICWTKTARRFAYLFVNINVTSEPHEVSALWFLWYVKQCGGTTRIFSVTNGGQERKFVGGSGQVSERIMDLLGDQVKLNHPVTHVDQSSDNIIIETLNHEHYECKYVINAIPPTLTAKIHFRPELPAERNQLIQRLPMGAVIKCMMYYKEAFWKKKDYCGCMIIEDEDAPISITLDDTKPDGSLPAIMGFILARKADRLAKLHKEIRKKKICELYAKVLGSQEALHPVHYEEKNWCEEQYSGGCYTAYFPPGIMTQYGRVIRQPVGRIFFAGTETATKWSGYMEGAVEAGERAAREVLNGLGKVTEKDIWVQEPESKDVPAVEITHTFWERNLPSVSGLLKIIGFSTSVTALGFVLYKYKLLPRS

[3] = target: Mu-type opioid receptor (Homo sapiens, UniProt P35372); assay: biochemical; type: functional
Sequence of Mu-type opioid receptor (P35372 whole entry): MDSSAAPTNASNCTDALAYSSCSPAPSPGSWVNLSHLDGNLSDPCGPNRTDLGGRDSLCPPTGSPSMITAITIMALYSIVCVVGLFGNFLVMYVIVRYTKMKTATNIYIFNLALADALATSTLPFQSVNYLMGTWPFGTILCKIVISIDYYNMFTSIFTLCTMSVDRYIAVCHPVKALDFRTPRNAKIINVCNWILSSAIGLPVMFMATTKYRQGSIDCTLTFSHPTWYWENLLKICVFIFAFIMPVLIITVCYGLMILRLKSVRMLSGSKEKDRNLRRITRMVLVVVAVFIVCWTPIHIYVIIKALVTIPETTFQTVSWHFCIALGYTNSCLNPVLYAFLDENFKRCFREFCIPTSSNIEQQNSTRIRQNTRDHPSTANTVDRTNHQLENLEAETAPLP

[4] = target: D(1A) dopamine receptor (Homo sapiens, UniProt P21728); type: functional, cell-based
Sequence of D(1A) dopamine receptor (P21728 whole entry): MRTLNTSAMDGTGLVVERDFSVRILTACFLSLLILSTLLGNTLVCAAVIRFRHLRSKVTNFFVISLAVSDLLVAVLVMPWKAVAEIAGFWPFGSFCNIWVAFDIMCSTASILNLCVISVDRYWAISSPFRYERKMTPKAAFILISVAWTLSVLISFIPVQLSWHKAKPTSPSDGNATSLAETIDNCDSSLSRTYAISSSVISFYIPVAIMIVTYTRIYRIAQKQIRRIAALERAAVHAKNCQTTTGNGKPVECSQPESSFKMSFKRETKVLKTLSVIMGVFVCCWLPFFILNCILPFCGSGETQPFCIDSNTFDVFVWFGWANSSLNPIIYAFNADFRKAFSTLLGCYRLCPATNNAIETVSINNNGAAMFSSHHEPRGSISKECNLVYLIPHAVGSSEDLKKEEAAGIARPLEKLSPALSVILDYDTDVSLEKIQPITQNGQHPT

[5] = target: T3, Estrogen receptor (Homo sapiens, UniProt P03372)
T3 sequence (P03372 whole entry): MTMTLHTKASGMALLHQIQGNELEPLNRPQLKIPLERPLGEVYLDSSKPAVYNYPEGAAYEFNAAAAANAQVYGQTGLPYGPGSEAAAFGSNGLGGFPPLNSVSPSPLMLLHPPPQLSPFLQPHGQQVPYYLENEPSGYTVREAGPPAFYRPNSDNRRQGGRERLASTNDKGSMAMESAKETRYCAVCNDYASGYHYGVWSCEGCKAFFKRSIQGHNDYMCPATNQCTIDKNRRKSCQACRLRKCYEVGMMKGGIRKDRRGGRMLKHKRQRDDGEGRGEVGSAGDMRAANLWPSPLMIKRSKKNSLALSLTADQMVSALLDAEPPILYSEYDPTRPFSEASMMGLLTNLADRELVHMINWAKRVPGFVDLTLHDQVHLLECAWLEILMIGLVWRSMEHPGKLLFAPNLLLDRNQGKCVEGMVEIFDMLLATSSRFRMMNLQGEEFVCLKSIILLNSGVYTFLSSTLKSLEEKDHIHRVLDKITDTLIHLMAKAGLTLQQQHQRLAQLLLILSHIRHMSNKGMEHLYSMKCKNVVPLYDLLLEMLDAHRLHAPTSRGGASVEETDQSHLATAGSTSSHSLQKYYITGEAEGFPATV

[6] = target: T4, Cholecystokinin receptor type A (Homo sapiens, UniProt P32238)
T4 sequence (P32238 whole entry): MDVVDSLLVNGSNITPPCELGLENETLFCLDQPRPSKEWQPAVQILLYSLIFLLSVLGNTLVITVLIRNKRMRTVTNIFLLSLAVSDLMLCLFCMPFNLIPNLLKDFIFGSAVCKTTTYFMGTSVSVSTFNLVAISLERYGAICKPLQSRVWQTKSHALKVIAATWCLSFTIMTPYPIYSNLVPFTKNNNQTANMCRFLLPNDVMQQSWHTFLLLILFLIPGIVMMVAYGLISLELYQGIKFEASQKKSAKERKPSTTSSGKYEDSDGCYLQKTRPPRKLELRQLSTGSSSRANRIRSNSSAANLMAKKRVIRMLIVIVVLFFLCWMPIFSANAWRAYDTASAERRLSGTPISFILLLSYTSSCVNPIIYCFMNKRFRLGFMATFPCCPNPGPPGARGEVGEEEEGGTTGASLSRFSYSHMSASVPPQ

[7] = target: Beta-1 adrenergic receptor (Homo sapiens, UniProt P08588); type: functional
Sequence of Beta-1 adrenergic receptor (P08588 whole entry): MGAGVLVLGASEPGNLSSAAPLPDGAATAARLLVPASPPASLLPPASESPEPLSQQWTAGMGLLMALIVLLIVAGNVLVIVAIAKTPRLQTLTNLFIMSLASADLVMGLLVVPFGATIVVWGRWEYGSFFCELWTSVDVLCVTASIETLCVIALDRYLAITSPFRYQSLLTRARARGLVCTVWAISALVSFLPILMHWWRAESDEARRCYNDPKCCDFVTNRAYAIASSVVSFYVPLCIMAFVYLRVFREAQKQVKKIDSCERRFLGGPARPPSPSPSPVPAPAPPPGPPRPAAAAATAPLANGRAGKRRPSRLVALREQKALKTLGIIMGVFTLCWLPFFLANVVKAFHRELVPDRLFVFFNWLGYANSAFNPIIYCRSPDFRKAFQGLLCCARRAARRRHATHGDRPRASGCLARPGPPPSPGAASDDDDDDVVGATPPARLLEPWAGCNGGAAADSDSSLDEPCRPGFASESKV

[8] = target: Histamine H2 receptor (Homo sapiens, UniProt P25021); type: functional, cell-based
Sequence of Histamine H2 receptor (P25021 whole entry): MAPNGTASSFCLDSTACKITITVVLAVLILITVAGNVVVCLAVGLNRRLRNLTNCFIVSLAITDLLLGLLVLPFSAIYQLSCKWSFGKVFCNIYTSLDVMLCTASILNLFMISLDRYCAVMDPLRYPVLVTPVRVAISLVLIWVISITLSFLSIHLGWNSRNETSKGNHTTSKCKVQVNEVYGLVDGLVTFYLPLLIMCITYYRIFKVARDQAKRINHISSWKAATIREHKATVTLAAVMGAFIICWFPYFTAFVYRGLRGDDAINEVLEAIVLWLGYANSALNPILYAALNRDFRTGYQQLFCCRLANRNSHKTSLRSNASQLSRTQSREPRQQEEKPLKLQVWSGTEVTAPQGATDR

[9] = target: T5, 5-hydroxytryptamine receptor 2A (Homo sapiens, UniProt P28223); type: functional, cell-based
T5 sequence (P28223 whole entry): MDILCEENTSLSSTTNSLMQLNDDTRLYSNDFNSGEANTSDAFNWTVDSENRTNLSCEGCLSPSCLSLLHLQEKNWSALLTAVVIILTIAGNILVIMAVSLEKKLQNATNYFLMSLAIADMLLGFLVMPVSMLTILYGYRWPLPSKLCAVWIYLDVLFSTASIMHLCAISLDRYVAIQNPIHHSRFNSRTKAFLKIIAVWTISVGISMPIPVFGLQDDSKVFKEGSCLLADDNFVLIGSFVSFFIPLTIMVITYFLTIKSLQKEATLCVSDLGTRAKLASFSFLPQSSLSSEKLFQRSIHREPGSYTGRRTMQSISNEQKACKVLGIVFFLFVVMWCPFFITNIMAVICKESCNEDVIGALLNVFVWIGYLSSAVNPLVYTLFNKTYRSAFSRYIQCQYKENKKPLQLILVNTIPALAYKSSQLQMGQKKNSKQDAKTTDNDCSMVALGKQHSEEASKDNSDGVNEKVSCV

[10] = target: Histamine H3 receptor (Homo sapiens, UniProt Q9Y5N1)
Sequence of Histamine H3 receptor (Q9Y5N1 whole entry): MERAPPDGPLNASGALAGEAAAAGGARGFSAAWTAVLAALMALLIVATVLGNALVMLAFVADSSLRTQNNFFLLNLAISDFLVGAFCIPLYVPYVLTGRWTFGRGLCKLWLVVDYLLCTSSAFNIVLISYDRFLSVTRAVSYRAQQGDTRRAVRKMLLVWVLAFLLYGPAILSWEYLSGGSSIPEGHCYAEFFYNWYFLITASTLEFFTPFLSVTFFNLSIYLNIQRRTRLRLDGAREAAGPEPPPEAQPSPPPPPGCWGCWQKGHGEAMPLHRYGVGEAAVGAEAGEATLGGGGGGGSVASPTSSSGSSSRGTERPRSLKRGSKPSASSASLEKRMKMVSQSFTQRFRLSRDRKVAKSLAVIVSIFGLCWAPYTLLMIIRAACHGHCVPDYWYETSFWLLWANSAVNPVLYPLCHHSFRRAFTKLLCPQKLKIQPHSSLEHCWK

[11] = target: Gamma-aminobutyric acid receptor subunit alpha-1 (Rattus norvegicus, UniProt P62813)
Sequence of Gamma-aminobutyric acid receptor subunit alpha-1 (P62813 whole entry): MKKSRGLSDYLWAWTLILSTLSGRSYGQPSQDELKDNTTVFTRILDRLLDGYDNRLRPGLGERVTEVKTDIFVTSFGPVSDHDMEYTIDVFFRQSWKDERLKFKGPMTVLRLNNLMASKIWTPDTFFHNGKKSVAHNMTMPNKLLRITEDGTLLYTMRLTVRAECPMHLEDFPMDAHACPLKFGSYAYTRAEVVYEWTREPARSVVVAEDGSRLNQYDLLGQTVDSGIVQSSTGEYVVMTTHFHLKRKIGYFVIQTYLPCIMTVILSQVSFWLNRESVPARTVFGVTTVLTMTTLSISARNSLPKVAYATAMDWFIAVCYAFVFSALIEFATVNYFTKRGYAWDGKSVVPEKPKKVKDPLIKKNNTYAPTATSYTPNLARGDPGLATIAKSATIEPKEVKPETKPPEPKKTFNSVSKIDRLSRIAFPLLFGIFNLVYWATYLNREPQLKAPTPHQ

[12] = target: T5, 5-hydroxytryptamine receptor 2A; type: functional, cell-based; remark: listed apart in the source

Measured: AC50
Also: assay procedure not described here.

COC(=O)C1=C(C)NC(C)=C(C(=O)OC2CCCN(Cc3ccccc3)C2)C1c1cccc([N+](=O)[O-])c1 (centres undefined) [BENIDIPINE]
> 30 µM: all assays above

CCCCCCOc1ccccc1C(N)=O [EXALAMIDE]
> 30 µM: all assays above
